Assay in all cases: Radioligand binding assay for human β adrenergic receptors
Test [1] deals with T1, human β2 adrenergic receptor (Homo sapiens, UniProt P07550).
T1 construct: expressed in transfected cells; host or cells: HEK-293
The following applies: [3H]-dihydroalprenolol 1 nM. As to the method: (§1) Human embryonic kidney (HEK-293) cell lines stably expressing cloned human β1 and β2 adrenergic receptors or Chinese hamster ovarian (CHO) cell lines stably expressing cloned human β3 adrenergic receptors were grown to near confluency in DMEM or Hams F-12 media with 10% FBS in the presence of 500 μg/mL Geneticin. The cell monolayer was lifted with 2 mM EDTA in PBS. Cells were pelleted by centrifugation at 1,000 rpm, and cell pellets were either stored frozen at −80° C. or membranes were prepared immediately for use. For preparation of β1 and β2 receptor expressing membranes, cell pellets were re-suspended in lysis buffer (10 mM HEPES/HCl, 10 mM EDTA, pH 7.4 at 4° C.) and homogenized using a tight-fitting Dounce glass homogenizer (30 strokes) on ice. […] The protein concentration of the membrane suspension was determined by the methods described in Lowry et al., 1951, Journal of Biological Chemistry, 193, 265; and Bradford, Analytical Biochemistry, 1976, 72, 248-54. […]
(§2) Binding assays were performed in 96-well microtiter plates in a total assay volume of 100 μL with 10-15 μg of membrane protein containing the human β1, β2 or β3 adrenergic receptors in assay buffer (75 mM Tris/HCl pH 7.4 at 25° C., 12.5 mM MgCl2, 1 mM EDTA, 0.2% BSA). […] Non-specific binding was determined in the presence of 10 μM propranolol. […] Filter plates were washed three times with filtration buffer (75 mM Tris/HCl pH 7.4 at 4° C., 12.5 mM MgCl2, 1 mM EDTA) to remove unbound radioactivity. The plates were then dried and 50 μL of Microscint-20 liquid scintillation fluid (Packard BioScience Co., Meriden, Conn.) was added and plates were counted in a Packard Topcount liquid scintillation counter (Packard BioScience Co., Meriden, Conn.). Binding data were analyzed by nonlinear regression analysis with the GraphPad Prism Software package (GraphPad Software, Inc., San Diego, Calif.) using the 3-parameter model for one-site competition. The curve minimum was fixed to the value for nonspecific binding, as determined in the presence of 10 μM propranolol. […]

Test [2] deals with T2, human β3 adrenergic receptor (Homo sapiens, UniProt P13945).
T2 construct: expressed in transfected cells; host or cells: CHO / CHO-K1
The following applies: [125I]-(−)-iodocyanopindolol 0.5 nM. As to the method: as §1, §2

Test [3] has as its target T3, human β1 adrenergic receptor (Homo sapiens, UniProt P08588).
T3 construct: expressed in transfected cells; host or cells: HEK-293
The following applies: [3H]-dihydroalprenolol 1 nM. The protocol: as §1, §2

T1 sequence (P07550 whole entry): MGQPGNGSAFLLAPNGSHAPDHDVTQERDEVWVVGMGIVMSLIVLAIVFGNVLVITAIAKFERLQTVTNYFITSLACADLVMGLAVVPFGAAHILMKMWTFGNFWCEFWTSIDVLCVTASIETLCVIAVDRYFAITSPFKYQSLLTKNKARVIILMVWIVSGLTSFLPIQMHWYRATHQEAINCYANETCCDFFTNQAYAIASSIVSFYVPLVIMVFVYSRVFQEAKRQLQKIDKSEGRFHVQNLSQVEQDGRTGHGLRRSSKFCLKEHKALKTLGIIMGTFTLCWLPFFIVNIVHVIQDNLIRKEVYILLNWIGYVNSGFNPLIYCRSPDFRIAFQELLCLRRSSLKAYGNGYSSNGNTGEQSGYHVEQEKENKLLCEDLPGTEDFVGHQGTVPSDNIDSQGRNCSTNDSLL
T2 sequence (P13945 whole entry): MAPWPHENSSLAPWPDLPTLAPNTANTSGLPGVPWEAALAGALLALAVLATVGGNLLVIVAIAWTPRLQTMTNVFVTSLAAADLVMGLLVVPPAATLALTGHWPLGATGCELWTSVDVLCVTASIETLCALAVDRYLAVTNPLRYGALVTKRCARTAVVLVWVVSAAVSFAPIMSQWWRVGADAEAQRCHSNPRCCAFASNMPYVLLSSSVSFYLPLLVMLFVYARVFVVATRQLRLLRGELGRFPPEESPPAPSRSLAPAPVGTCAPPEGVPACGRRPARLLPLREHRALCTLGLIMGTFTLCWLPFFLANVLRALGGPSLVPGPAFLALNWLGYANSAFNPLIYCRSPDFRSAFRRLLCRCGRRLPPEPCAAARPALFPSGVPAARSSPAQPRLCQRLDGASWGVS
T3 sequence (P08588 whole entry): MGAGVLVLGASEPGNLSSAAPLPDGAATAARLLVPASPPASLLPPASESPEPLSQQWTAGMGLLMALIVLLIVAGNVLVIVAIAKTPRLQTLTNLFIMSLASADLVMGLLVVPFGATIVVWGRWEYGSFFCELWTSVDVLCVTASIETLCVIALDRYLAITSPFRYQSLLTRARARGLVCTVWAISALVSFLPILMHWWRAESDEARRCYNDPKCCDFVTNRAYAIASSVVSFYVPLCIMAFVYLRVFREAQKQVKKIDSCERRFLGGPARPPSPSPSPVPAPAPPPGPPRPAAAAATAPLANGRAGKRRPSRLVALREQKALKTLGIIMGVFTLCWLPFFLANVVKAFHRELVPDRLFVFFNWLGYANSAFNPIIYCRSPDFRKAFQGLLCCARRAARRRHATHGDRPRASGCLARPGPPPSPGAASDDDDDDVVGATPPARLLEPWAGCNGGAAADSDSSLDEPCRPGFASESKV

Turning to `Cc1cc(NC(=O)CCN2CCC(OC(=O)Nc3ccccc3-c3ccccc3)CC2)c(C)cc1CNC[C@H](O)c1ccc(O)c(NC=O)c1` [compound of formula I, biphenyl-2-ylcarbamic acid 1-[2-(4-{[(R)-2-(3-formylamino-4-hydroxyphenyl)-2-hydroxyethylamino]methyl}-2,5-dimethylphenylcarbamoyl)ethyl]-piperidin-4-yl ester], the Ki (commonly the dissociation constant of the complex between target and ligand, obtained from inhibition or displacement) is < 10 nM in test [1], > 1000 nM in test [2] and > 1000 nM in test [3].
